pIC50: −log10 of the molar value.
Tests used:
SCD5 = biological target: T1, SCD5 (Homo sapiens, UniProt Q86SK9); assay: Growth inhibition of humanized yeast strain expressing SCD5 as sole desaturase; type: cell-based
T1 construct: host or cells: S. cerevisiae ole1Δ strain (W303 pdr1Δ pdr3Δ background), plasmid pRS316 with TDH3 promoter and CYC1 terminator
T1 sequence (Q86SK9 1-330): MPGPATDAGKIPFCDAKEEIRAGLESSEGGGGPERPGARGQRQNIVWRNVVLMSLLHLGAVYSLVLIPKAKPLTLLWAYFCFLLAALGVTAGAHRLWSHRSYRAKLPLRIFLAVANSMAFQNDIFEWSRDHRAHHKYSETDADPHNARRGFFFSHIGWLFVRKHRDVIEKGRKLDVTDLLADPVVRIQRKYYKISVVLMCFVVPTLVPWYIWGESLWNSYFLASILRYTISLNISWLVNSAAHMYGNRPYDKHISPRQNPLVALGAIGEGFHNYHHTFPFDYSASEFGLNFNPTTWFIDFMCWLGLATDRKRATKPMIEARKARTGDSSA
Summary of the method: (§1)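 Plasmid-complemented ole1Δ yeast, drug-pump deleted (pdr1Δ pdr3Δ), depend solely on the introduced Ole1, SCD1 or SCD5 desaturase. Compounds are added from DMSO to cells in uracil-free galactose medium, 2× density 0.02, and OD600 is read after 24 h or 40 h respectively.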

SCD1 = biological target: T2, SCD1 (Homo sapiens, UniProt O00767); assay: Growth inhibition of humanized yeast strain expressing SCD1 as sole desaturase; type: cell-based
T2 construct: host or cells: S. cerevisiae ole1Δ strain (W303 pdr1Δ pdr3Δ background), plasmid pRS316 with TDH3 promoter and CYC1 terminator
T2 sequence (O00767 1-359): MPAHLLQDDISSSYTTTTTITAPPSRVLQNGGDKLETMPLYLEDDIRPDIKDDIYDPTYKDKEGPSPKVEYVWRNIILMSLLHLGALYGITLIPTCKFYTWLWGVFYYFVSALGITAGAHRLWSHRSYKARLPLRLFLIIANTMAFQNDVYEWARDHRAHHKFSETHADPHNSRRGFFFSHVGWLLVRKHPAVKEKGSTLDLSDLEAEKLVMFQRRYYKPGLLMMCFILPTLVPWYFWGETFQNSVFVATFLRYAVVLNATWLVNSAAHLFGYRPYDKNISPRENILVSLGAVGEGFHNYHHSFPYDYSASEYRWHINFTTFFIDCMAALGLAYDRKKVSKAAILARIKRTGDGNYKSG
Summary of the method: as §1

[1] = growth inhibition of humanized yeast strain expressing human SCD5
[2] = growth inhibition of humanized yeast strain expressing human SCD1

Work on `COC(=O)N1CCC(c2nc(-c3ccc4cn[nH]c4c3)no2)CC1` [Compound 936] yielded a pIC50 (SCD5; humanized yeast strain, 40 h) of 5.46 and a pIC50 (SCD1; humanized yeast strain, 40 h) of less than 4.35.
Work on `O=C(C1CC1)N1CCC(c2noc(-c3ccnc(Cl)c3)n2)CC1` [Compound 1123] yielded a pIC50 (SCD5; humanized yeast strain, 40 h) of 5.18 and a pIC50 (SCD1; humanized yeast strain, 40 h) of less than 4.35.
Work on `CC(C)(C)OC(=O)N1CCC(c2nc(-c3ccc4cnn([C@H]5C[C@H](OC(=O)c6ccc([N+](=O)[O-])cc6)C5)c4c3)no2)CC1` [Compound 847] yielded a pIC50 (SCD5; humanized yeast strain, 40 h) of less than 4.35 and a pIC50 (SCD1; humanized yeast strain, 40 h) of less than 4.35.
`Cc1nn(C)c2cc(-c3noc(C4CCN(C(=O)CCC(F)(F)F)CC4)n3)ccc12` [Compound 677] showed a pIC50 (SCD5; [1]) of less than 4.35 and a pIC50 (SCD1; [2]) of less than 4.35.
`CC(C)(C)OC(=O)N1CCC(c2nc(-c3ccc4cnn([C@H]5CCOC5)c4c3)no2)CC1` [Compound 791] was tested, and the pIC50 (SCD5; humanized yeast strain, 40 h) was 8.00 and the pIC50 (SCD1; humanized yeast strain, 40 h) was less than 4.35.
`CC(C)(C)OC(=O)N1CCC(c2noc(-c3cc(F)cc(N4CCOCC4)c3)n2)CC1` [Compound 1086] showed a pIC50 (SCD5; humanized yeast strain, 40 h) of 7.72 and a pIC50 (SCD1; humanized yeast strain, 40 h) of less than 4.35.
For `CC1(CC(=O)N2CCC(c3nc(-c4ccc5cnn(C6COC6)c5c4)ns3)CC2)CC1` [Compound 801], the pIC50 (SCD5; humanized yeast strain, 40 h) was 6.44 and the pIC50 (SCD1; humanized yeast strain, 40 h) was less than 4.35.
Work on `CC(C)(C)CC(=O)N1CCC(c2nc(-c3ccc4cnn(C5CCOC5)c4c3)no2)CC1` (centres unmarked) [Compound 775] yielded a pIC50 (SCD5; humanized yeast strain, 40 h) of 7.66 and a pIC50 (SCD1; humanized yeast strain, 40 h) of less than 4.35.
In the case of `O=C(C1CC1)N1CCN(c2noc(-c3ccnc(NC4COC4)c3)n2)CC1` [Compound 1117], the pIC50 (SCD5; humanized yeast strain, 40 h) was less than 4.35 and the pIC50 (SCD1; humanized yeast strain, 40 h) was less than 4.35.
Work on `COC(=O)N1CCC(c2noc(-c3ccc4cnn(C5COC5)c4c3F)n2)CC1` [Compound 1004] yielded a pIC50 (SCD5; humanized yeast strain, 40 h) of 6.53 and a pIC50 (SCD1; humanized yeast strain, 40 h) of less than 4.35.
`CC(C1CC1)n1ncc2ccc(-c3noc(C4CCN(C(=O)OC(C)(C)C)CC4)n3)cc21` (centres unmarked) [Compound 640] was tested, and the pIC50 (SCD5; [1]) was 5.40 and the pIC50 (SCD1; [2]) was less than 4.35.
With `CC1(OC(=O)N2CCN(c3noc(-c4ccnc(NC5COC5)c4)n3)CC2)CC1` [Compound 1008] the pIC50 (SCD5; humanized yeast strain, 40 h) was 5.69 and the pIC50 (SCD1; humanized yeast strain, 40 h) was less than 4.35.
`O=C(C1CC2(CC2)C1)N1CCN(c2noc(-c3ccc4cnn(C5COC5)c4c3)n2)CC1` [Compound 864] showed a pIC50 (SCD5; humanized yeast strain, 40 h) of less than 4.35 and a pIC50 (SCD1; humanized yeast strain, 40 h) of less than 4.35.
`O=C(N1CCC(c2noc(-c3cc(F)c4cnn(C5COC5)c4c3)n2)CC1)C1(F)CC1` [Compound 1062] showed a pIC50 (SCD5; humanized yeast strain, 40 h) of 8.00 and a pIC50 (SCD1; humanized yeast strain, 40 h) of 4.54.
Molecule `CC(=O)N1CC(n2cc3ccc(-c4nc(N5CCN(C(=O)OC(C)(C)C)CC5)no4)cc3n2)C1` [Compound 914] has a pIC50 (SCD5; humanized yeast strain, 40 h) of 5.21 and a pIC50 (SCD1; humanized yeast strain, 40 h) of less than 4.35.
Molecule `CC(C)(C)OC(=O)N1CCC(c2noc(-c3ccc4oc(=O)n(C5COC5)c4c3)n2)CC1` [Compound 1005] has a pIC50 (SCD5; humanized yeast strain, 40 h) of 8.00 and a pIC50 (SCD1; humanized yeast strain, 40 h) of less than 4.35.
Work on `CC1(C)CC1C(=O)N1CCC(c2noc(-c3ccc4cnn(C5COC5)c4c3)n2)CC1` (centres unmarked) [Compound 848] yielded a pIC50 (SCD5; humanized yeast strain, 40 h) of 8.00 and a pIC50 (SCD1; humanized yeast strain, 40 h) of less than 4.35.
`COC(=O)N1CCC(c2noc(-c3ccc4cnn([C@H]5CCOC5)c4c3)n2)CC1` [Compound 878] was tested, and the pIC50 (SCD5; humanized yeast strain, 40 h) was 8.30 and the pIC50 (SCD1; humanized yeast strain, 40 h) was less than 4.35.
Molecule `COC(=O)N1CCC(c2noc(-c3ccnc(C4CCOC4)c3)n2)CC1` (centres unmarked) [Compound 1015] has a pIC50 (SCD5; humanized yeast strain, 40 h) of 6.37 and a pIC50 (SCD1; humanized yeast strain, 40 h) of less than 4.35.
In the case of `CCC(=O)N1CCN(c2noc(-c3ccc4cnn(C5COC5)c4c3)n2)CC1` [Compound 841], the pIC50 (SCD5; humanized yeast strain, 40 h) was 6.68 and the pIC50 (SCD1; humanized yeast strain, 40 h) was less than 4.35.
For `O=C1CC(c2noc(-c3ccc4cnn(C5COC5)c4c3)n2)CCN1CC1CC1` (centres unmarked) [Compound 1141], the pIC50 (SCD5; humanized yeast strain, 40 h) was 6.06 and the pIC50 (SCD1; humanized yeast strain, 40 h) was less than 4.35.
With `CC(C)(C)OC(=O)N1CC2(CC(c3noc(-c4ccc5cnn(C6COC6)c5c4)n3)C2)C1` [Compound 1020] the pIC50 (SCD5; humanized yeast strain, 40 h) was 6.77 and the pIC50 (SCD1; humanized yeast strain, 40 h) was 4.84.
`COC1(C(=O)N2CCN(c3noc(-c4ccc5cnn(C6COC6)c5c4)n3)CC2)CC1` [Compound 884] showed a pIC50 (SCD5; humanized yeast strain, 40 h) of 8.00 and a pIC50 (SCD1; humanized yeast strain, 40 h) of less than 4.35.
Molecule `CC(C)(C)COC(=O)N1CC(c2nc(-c3ccc4cnn(C5COC5)c4c3)no2)C1` [Compound 709] has a pIC50 (SCD5; [1]) of 5.32 and a pIC50 (SCD1; [2]) of less than 4.35.
With `COC(=O)N1CC[C@@H](c2noc(-c3ccc4cnn(C5COC5)c4c3)n2)C[C@@H]1C` [Compound 1054] the pIC50 (SCD5; humanized yeast strain, 40 h) was 8.00 and the pIC50 (SCD1; humanized yeast strain, 40 h) was less than 4.35.
Work on `CC(C)n1nc(CCO)c2ccc(-c3noc(C4CCN(C(=O)OC(C)(C)C)CC4)n3)cc21` [Compound 699] yielded a pIC50 (SCD5; [1]) of 5.12 and a pIC50 (SCD1; [2]) of less than 4.35.
For `CC(C)n1ncc2ccc(-c3noc(C4CCN(C(=O)N5CCCC5(C)CO)CC4)n3)cc21` (centres unmarked) [Compound 687], the pIC50 (SCD5; [1]) was less than 4.35 and the pIC50 (SCD1; [2]) was less than 4.35.
For `CC(C)C(=O)N1CCC(c2noc(-c3ccc4oc(=O)n(C5COC5)c4c3)n2)CC1` [Compound 1126], the pIC50 (SCD5; humanized yeast strain, 40 h) was 5.56 and the pIC50 (SCD1; humanized yeast strain, 40 h) was less than 4.35.

— patent US11873298B2, “Compounds and uses thereof” (JANSSEN PHARMACEUTICA NV, priority 2017, dated 2024)
